This note sets out measurements from ChEMBL document CHEMBL1201862, “PubChem BioAssay data set” (2004).

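These data come from cells grown in 96-well plates and exposed to compound for 48 hours at five concentrations. GI50 is the concentration that inhibits growth by half.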 Active and inactive are the calls of the source. Rule as the data show it: active = GI50 up to about 1.1 µM and inactive = higher.

Among the test systems are NCI-H226; ACHN; COLO 205; T47D; A549; NCI-H23; BT-549; SK-MEL-28; TK-10; DU-145; OVCAR-3; HCT-116; 786-0; RPMI-8226; UO-31; MDA-MB-435; Malme-3M; KM12.
Assay in all cases: growth of human tumour cells (NCI), 48 h

As for `C#CCOCCCC(=O)O`, the GI50 with NCI-H226, with ACHN, in the test on COLO 205, in the test with T47D, in the test on A549 and with NCI-H23 was > 100 µM (inactive) each time. Moreover, the GI50 in the test on BT-549, in the test with SK-MEL-28, with TK-10, with DU-145, in the test with OVCAR-3 and with HCT-116 was > 100 µM (inactive) each time. In addition, the GI50 in the test on 786-0 and with RPMI-8226 was > 100 µM (inactive) in each case.
`COc1ccccc1NC(=S)N/N=C1\C(=O)Nc2ccccc21`: the GI50 with NCI-H226, in the test with UO-31, in the test on ACHN, in the test with COLO 205, in the test on MDA-MB-435 and in the test on Malme-3M was > 100 µM (inactive) in each case. In addition, the GI50 is > 100 µM (inactive) with KM12; > 100 µM (inactive) with T47D; > 100 µM (inactive) in the test with A549; > 100 µM (inactive) with NCI-H23; 3.29 µM (inactive) in the test with SK-MEL-28; > 100 µM (inactive) in the test on TK-10. Also, the GI50 in the test with DU-145 is 0.762 µM (active); in the test on OVCAR-3, 57.7 µM (inactive); in the test with HCT-116, > 100 µM (inactive); with 786-0 it was > 100 µM (inactive); with RPMI-8226, > 100 µM (inactive).
As to `O=C1COc2cccnc2N1CCCCO`, the GI50 in the test with UO-31 was > 100 µM (inactive); with ACHN, > 100 µM (inactive); with MDA-MB-435, > 100 µM (inactive); in the test on KM12, > 100 µM (inactive); in the test on T47D, 38.1 µM (inactive); with A549, > 100 µM (inactive). Besides, the GI50 in the test with BT-549, with SK-MEL-28, with TK-10, with DU-145, with OVCAR-3 and in the test on HCT-116 was > 100 µM (inactive) throughout. In addition, the GI50 with 786-0 and with RPMI-8226 was > 100 µM (inactive) each time.
In the case of `C=C1CC[C@@H](CCC2CCC3(OC2)O[C@]2(O)CC[C@@]3(C)OC2(C)C)C(C)(C)[C@H]1C/C=C1\CCOC1=O` (some centres not stated), the GI50 was 3.91 µM (inactive) with NCI-H226; 30.3 µM (inactive) in the test on UO-31; 10.7 µM (inactive) with ACHN; 16.3 µM (inactive) in the test on COLO 205; 14.3 µM (inactive) with MDA-MB-435; 16.7 µM (inactive) in the test with Malme-3M. The GI50 in the test on KM12 is 16.2 µM (inactive); in the test on A549 it was 8.89 µM (inactive); with NCI-H23, 0.444 µM (active); in the test with BT-549, 11.7 µM (inactive); in the test with SK-MEL-28 it was 26.1 µM (inactive); with TK-10, 39.5 µM (inactive). Moreover, the GI50 was 12.5 µM (inactive) in the test on DU-145; 15 µM (inactive) in the test on OVCAR-3; 0.354 µM (active) in the test on HCT-116; 11.8 µM (inactive) in the test on 786-0; 1.9 µM (inactive) in the test on RPMI-8226.
As for `COc1cc(/C=C2\N=C(c3ccccc3)N(/N=C/c3cc4cc(C)ccc4nc3Cl)C2=O)ccc1O`, the GI50 is 32.5 µM (inactive) in the test on UO-31; 36.6 µM (inactive) in the test on ACHN; 37.2 µM (inactive) in the test on COLO 205; 17.3 µM (inactive) with MDA-MB-435; 37.2 µM (inactive) in the test on KM12; 56.1 µM (inactive) with T47D. Moreover, the GI50 in the test on A549 is 37.5 µM (inactive); in the test on BT-549 it was 63.8 µM (inactive); with SK-MEL-28, > 100 µM (inactive); in the test with TK-10, 43.2 µM (inactive); in the test with DU-145 it was 65.6 µM (inactive); in the test on OVCAR-3 it was 38.9 µM (inactive). The values for the GI50 in the test on HCT-116, with 786-0 and in the test on RPMI-8226 were 20.4 µM (inactive), 37.6 µM (inactive) and 31.6 µM (inactive), respectively.
Turning to `CCOC(=O)c1nnsc1NN`, the GI50 with NCI-H226 is > 100 µM (inactive); with UO-31, > 100 µM (inactive); with ACHN, > 100 µM (inactive); in the test with COLO 205 it was > 100 µM (inactive); with MDA-MB-435, > 100 µM (inactive); with KM12, 95.3 µM (inactive). Further, the GI50 was 62.5 µM (inactive) in the test with A549; > 100 µM (inactive) in the test on NCI-H23; > 100 µM (inactive) with BT-549; > 100 µM (inactive) in the test with SK-MEL-28; > 100 µM (inactive) in the test with TK-10; > 100 µM (inactive) in the test with DU-145. Moreover, the GI50 with OVCAR-3 is > 100 µM (inactive); in the test with HCT-116, 55.5 µM (inactive); with 786-0 it was 39.3 µM (inactive).
Turning to `COC1=CC2(CC(OC)=C1OC)OC21COc2ccccc2C1=O` (configuration not stated), the GI50 is 62.5 µM (inactive) with NCI-H226; 5.16 µM (inactive) in the test on UO-31; 45.1 µM (inactive) in the test with ACHN; > 100 µM (inactive) in the test with COLO 205; > 100 µM (inactive) in the test with MDA-MB-435; > 100 µM (inactive) in the test on Malme-3M. Also, the GI50 in the test with KM12 was > 100 µM (inactive); with T47D it was 34.3 µM (inactive); in the test with A549 it was 56.4 µM (inactive); with NCI-H23, 58.5 µM (inactive); with BT-549, > 100 µM (inactive); with SK-MEL-28 it was > 100 µM (inactive). Further, the GI50 is > 100 µM (inactive) in the test on TK-10; > 100 µM (inactive) in the test on OVCAR-3; 50.5 µM (inactive) in the test with HCT-116; 37.7 µM (inactive) with 786-0; 51.5 µM (inactive) in the test on RPMI-8226.
Take `Cc1nc(C(N)=S)sc1C(=O)C/C(=N/N)C(=O)Nc1ccc(Cl)cc1`: the GI50 with NCI-H226 was > 100 µM (inactive); with UO-31, 70.6 µM (inactive); in the test on ACHN, 44.6 µM (inactive); with MDA-MB-435, > 100 µM (inactive); in the test with Malme-3M it was > 100 µM (inactive); in the test on KM12 it was 77.1 µM (inactive). Moreover, the GI50 with T47D is 46.1 µM (inactive); in the test with A549, > 100 µM (inactive); with NCI-H23 it was 57.9 µM (inactive); in the test with BT-549, > 100 µM (inactive); in the test with SK-MEL-28 it was > 100 µM (inactive); in the test on TK-10, > 100 µM (inactive). The GI50 in the test with OVCAR-3 was 37.5 µM (inactive); in the test on HCT-116, > 100 µM (inactive); with 786-0, 40.6 µM (inactive); with RPMI-8226, 38.2 µM (inactive).
Take `CCOC(=O)c1nnc2c(C(=O)OCC)c3ccccc3n2c1N`: the GI50 in the test on UO-31 was 7.87 µM (inactive); with ACHN, 7.19 µM (inactive); in the test on COLO 205, 10.2 µM (inactive); in the test on MDA-MB-435 it was 5.05 µM (inactive); in the test on Malme-3M, 2.1 µM (inactive); in the test on KM12, 4.43 µM (inactive). Also, the GI50 in the test on T47D was 29.9 µM (inactive); in the test with A549, 10.5 µM (inactive); with NCI-H23 it was 5.94 µM (inactive); in the test on BT-549, 13.7 µM (inactive); in the test with SK-MEL-28, 5.85 µM (inactive); in the test on TK-10, 7.91 µM (inactive). For the same molecule, the GI50 is 37.4 µM (inactive) in the test with DU-145; 4.46 µM (inactive) in the test on OVCAR-3; 29.3 µM (inactive) in the test with HCT-116; 67 µM (inactive) with 786-0; 1.54 µM (inactive) in the test with RPMI-8226.
With `COc1ccc(/N=N/c2c(C)c(C#N)c(=S)n(C3OC(COC(C)=O)C(OC(C)=O)C(OC(C)=O)C3OC(C)=O)c2C)cc1` (configuration not stated), the GI50 with UO-31 was > 100 µM (inactive); in the test with ACHN, > 100 µM (inactive); with COLO 205, > 100 µM (inactive); in the test with MDA-MB-435, > 10 µM (inactive); in the test on Malme-3M it was > 100 µM (inactive); with KM12, > 100 µM (inactive). In addition, the GI50 in the test on T47D, in the test with A549, in the test with NCI-H23, in the test with BT-549, with SK-MEL-28 and with TK-10 was > 100 µM (inactive) each time. Further, the GI50 is > 100 µM (inactive) in the test with DU-145; > 100 µM (inactive) in the test with OVCAR-3; > 100 µM (inactive) in the test on HCT-116; 22.5 µM (inactive) with 786-0; > 100 µM (inactive) in the test with RPMI-8226.
For `C[C@]12CC[C@H]3[C@@H](CCC4=CC(=O)CC[C@@]43C)[C@@H]1CC[C@@H]2OC(=O)c1cccc2c(=O)c3ccccc3[nH]c12`, the GI50 with NCI-H226 was 75.3 µM (inactive); in the test with UO-31, > 100 µM (inactive); with ACHN it was > 100 µM (inactive); in the test with COLO 205, > 100 µM (inactive); with MDA-MB-435 it was 43.2 µM (inactive); in the test with Malme-3M it was 47.3 µM (inactive). Also, the GI50 in the test with KM12 was 37.2 µM (inactive); in the test with T47D it was 57.3 µM (inactive); with A549 it was > 100 µM (inactive); with NCI-H23, > 100 µM (inactive); with BT-549, 58.1 µM (inactive); in the test on SK-MEL-28 it was > 100 µM (inactive). Besides, the GI50 is > 100 µM (inactive) in the test on TK-10, > 100 µM (inactive) with OVCAR-3, 20.3 µM (inactive) in the test with 786-0 and 24.3 µM (inactive) with RPMI-8226.
`COc1cc(/C=C/C(=O)OCCc2ccccc2)ccc1O`: the GI50 in the test on UO-31 was 13.9 µM (inactive); with ACHN, 18.5 µM (inactive); in the test on COLO 205 it was 19.4 µM (inactive); in the test on MDA-MB-435 it was 13.4 µM (inactive); in the test on Malme-3M, 16.4 µM (inactive); in the test with KM12 it was 14.6 µM (inactive). In addition, the GI50 in the test on T47D is 13.5 µM (inactive); in the test on A549, 18.4 µM (inactive); with NCI-H23, 17.2 µM (inactive); with BT-549, 14.7 µM (inactive); in the test on SK-MEL-28, 13.9 µM (inactive); in the test with TK-10, 15.1 µM (inactive). The GI50 in the test on DU-145 is 16.6 µM (inactive); with OVCAR-3, 18.1 µM (inactive); in the test on HCT-116 it was 17.7 µM (inactive); with 786-0, 15.7 µM (inactive); with RPMI-8226 it was 20.5 µM (inactive).
